Source: publication PMC6768323, “Adverse Maternal, Fetal, and Postnatal Effects of Hexafluoropropylene Oxide Dimer Acid (GenX) from Oral Gestational Exposure in Sprague-Dawley Rats” (Environmental Health Perspectives, 2019)
Values joined by “and” are separate entries in the source; they are usually repeats but may differ in a detail not shown here. Equal values may be shown once.

Experiments:
[1] = set-up: method as in DuPont 2017; conditions: ref DuPont 2017; cited from earlier work
[2] = system: PPAR signaling pathway genes, maternal liver; test: Maternal liver (GD18) PPAR gene array, fold induction versus control; oral dosing GD14-18; rows per gene in dose order 1, 3, 10, 30, 62.5, 125, 250, 500 mg/kg/d; format: in vivo, Sprague-Dawley rats
Experimental: A total of three blocks of 15 dams per block were dosed once daily from GD14–18 with either water vehicle (control) or HFPO-DA to evaluate fetal and maternal effects (Figure 1A). The first block of dams was dosed with control, 62.5, 125, 250, or 500mg/kg HFPO-DA ( n=3 dams for each). The second and third blocks of dams were dosed with control, 1, 3, 10, or 30mg/kg HFPO-DA ( n=3 per dose per block). Total sample sizes were n=9 for control, n=6 for 1, 3, 10, 30mg/kg , and n=3 for 62.5, 125, 250, and 500mg/kg HFPO-DA. In the first two blocks, spanning the entire dose range, we evaluated fetal testis testosterone production, fetal testis gene expression, fetal and maternal liver gene expression, fetal body weight, and maternal serum thyroid hormone and lipid concentrations. In the third block, encompassing the lower dose range utilized here, we collected fetal plasma for measuring HFPO-DA concentrations. Across all three blocks we evaluated maternal weight gain during dosing, reproductive output (number of fetuses and resorptions), maternal serum HFPO-DA concentration, and maternal liver weight at necropsy.
For the first two blocks, spanning the full dose range, late gestation (GD18) dams were euthanized by decapitation at ∼2h after the final oral dose [ ∼0830–1000 hours Eastern Standard Time (EST)]. Trunk blood was collected and serum isolated via centrifugation ( 10,000×g for 15 min at 4°C) in vacutainer tubes, transferred to 1.5-mL microcentrifuge tubes and stored at −80°C . Dam liver weight was recorded and a sample of liver tissue was collected into a polypropylene microcentrifuge tube containing 500μL TRIzol Reagent (Invitrogen) on ice. Fetuses were removed and two randomly selected fetuses per litter were weighed. Fetal testes were collected from all male pups with a single testis from the first three males used for determination of ex vivo testosterone production and the remaining testes were homogenized and preserved in TRIzol Reagent for gene expression analysis. The liver was collected from a single, randomly selected fetus per dam/litter for gene expression analysis and transferred to a polypropylene microcentrifuge tube containing 500μL TRIzol Reagent (Invitrogen) on ice. Both dam and fetal liver samples were individually homogenized using a Bullet Blender (Next Advance) with 1-mm zirconium oxide beads, transferred to clean tubes, and stored at −80°C prior to RNA extraction (see below). Ex vivo fetal testis testosterone production was measured as previously reported ([Wilson et al. 2004b]) except the radioimmunoassay (RIA) utilized here was supplied by ALPCO (Catalog No. 72-TESTO-CT2, ALPCO). Briefly, one testis was isolated from each of three separate male fetuses in each litter and incubated in a humidified atmosphere at 37°C for 3 h in 500μL of M-199 media (phenol red–free; Hazelton Biologics, Inc.) supplemented with 10% dextran-coated charcoal-stripped fetal bovine serum (Hyclone Laboratories) in 24-well plates under gentle agitation. After incubation, media were removed and stored in siliconized microcentrifuge tubes at −80°C until RIA analyses, which were performed according to manufacturer specifications.
Gene expression in fetal testes and fetal/maternal livers was assessed using reverse transcriptase real-time PCR of cDNA synthesized from RNA extracted from sample homogenates. RNA extraction was conducted according to TRIzol Reagent manufacturer specifications using chloroform and isopropanol. Following extraction, RNA was purified using the RNeasy Mini Kit (Catalog No. 74104; Qiagen). RNA concentration and purity (260:280 ratio ≥1.8 ) were determined with a NanoDrop 2000 spectrophotometer (Thermo Scientific). For the fetal testes, a 96-well gene array plate was previously custom designed to contain 89 target genes and 3 housekeeping genes, an intra-assay control, a genomic DNA control, a reverse transcriptase control, and a positive PCR control [see Table S1; SABioscience; ([Hannas et al. 2012])]. […]

O=C(O)C(F)(OC(F)(F)C(F)(F)C(F)(F)F)C(F)(F)F (stereo not drawn) [HFPO-DA, Hexafluoropropylene oxide dimer acid]
highest detected plasma concentration from a worker [1]: 0.169 µg/mL
Acox3 ([2]; dose order): 1.3 fold and 0.9 fold and 1.2 fold and 1.1 fold and 1.0 fold
Acsl1 ([2]; dose order): 1.3 fold and 1.5 fold and 1.1 fold and 1.7 fold and 1.6 fold and 1.8 fold
Acsl4 ([2]; dose order): 1.0 fold and 0.7 fold and 0.9 fold and 1.3 fold and 1.2 fold
Angptl4 ([2]; dose order): 2.3 fold and 3.4 fold and 2.1 fold and 3.6 fold and 3.0 fold and 2.9 fold and 2.5 fold
Apoa1 ([2]; dose order): 0.9 fold and 1.0 fold and 0.7 fold
Apoe ([2]; dose order): 1.2 fold and 0.8 fold and 0.9 fold and 0.7 fold
Cd36 ([2]; dose order): 0.8 fold and 1.2 fold and 0.9 fold and 1.0 fold and 1.1 fold
Clu ([2]; dose order): 1.1 fold and 1.4 fold and 0.8 fold and 1.3 fold and 1.2 fold and 1.5 fold and 1.6 fold
Creb1 ([2]; dose order): 1.1 fold and 0.9 fold and 1.0 fold and 0.8 fold
Crebbp ([2]; dose order): 1.3 fold and 0.9 fold and 1.0 fold
Dgat1 ([2]; dose order): 1.1 fold and 1.3 fold and 1.2 fold and 1.5 fold and 1.6 fold and 1.8 fold and 1.9 fold
Ep300 ([2]; dose order): 1.3 fold and 1.4 fold and 0.8 fold and 1.1 fold and 1.0 fold
Etfdh ([2]; dose order): 1.2 fold and 1.6 fold and 1.4 fold and 1.5 fold
Fabp5 ([2]; dose order): 1.0 fold and 1.3 fold and 1.2 fold and 0.8 fold
Fabp7 ([2]; dose order): 2.0 fold and 1.1 fold and 1.9 fold and 1.8 fold and 1.3 fold and 1.7 fold
Gk ([2]; dose order): 1.2 fold and 1.1 fold and 1.3 fold and 1.4 fold and 0.8 fold
Hif1a ([2]; dose order): 1.2 fold and 1.0 fold and 1.1 fold and 1.3 fold
Hspd1 ([2]; dose order): 1.1 fold and 1.2 fold and 1.3 fold and 1.9 fold and 1.8 fold and 2.2 fold and 2.1 fold
Ilk ([2]; dose order): 1.2 fold and 0.9 fold and 1.1 fold and 1.0 fold
Klf10 ([2]; dose order): 1.8 fold and 2.0 fold and 1.5 fold and 2.5 fold and 2.3 fold and 2.4 fold
Lpin1 ([2]; dose order): 1.2 fold and 1.4 fold and 0.8 fold and 1.1 fold and 1.0 fold and 0.9 fold
Med1 ([2]; dose order): 1.2 fold and 1.3 fold and 0.7 fold and 1.0 fold and 0.8 fold and 0.9 fold and 1.1 fold
Ncoa3 ([2]; dose order): 1.4 fold and 0.8 fold and 1.0 fold and 0.9 fold
Ncoa6 ([2]; dose order): 1.4 fold and 1.2 fold and 1.1 fold and 0.7 fold and 0.8 fold and 0.9 fold
Nr1h3 ([2]; dose order): 1.1 fold and 1.5 fold and 0.8 fold and 1.6 fold and 1.3 fold
Pdpk1 ([2]; dose order): 0.9 fold and 1.0 fold and 0.8 fold and 1.1 fold
Pltp ([2]; dose order): 1.2 fold and 0.7 fold and 0.9 fold and 1.4 fold and 1.1 fold and 1.0 fold
Ppara ([2]; dose order): 0.8 fold and 0.7 fold and 0.6 fold and 1.0 fold and 0.9 fold and 1.1 fold
Ppargc1b ([2]; dose order): 1.1 fold and 1.3 fold and 0.9 fold and 0.8 fold and 0.7 fold
Pprc1 ([2]; dose order): 1.2 fold and 1.0 fold and 1.4 fold and 1.5 fold
Pten ([2]; dose order): 0.8 fold and 1.1 fold and 0.9 fold and 1.0 fold
Pyy ([2]; dose order): 1.6 fold and 1.3 fold and 1.1 fold and 1.2 fold and 2.0 fold and 2.1 fold and 1.8 fold
Rxra ([2]; dose order): 1.2 fold and 1.4 fold and 0.7 fold and 1.0 fold and 1.1 fold
Rxrb ([2]; dose order): 1.5 fold and 1.4 fold and 0.9 fold and 1.1 fold and 0.8 fold and 1.0 fold
Rxrg ([2]; dose order): 1.5 fold and 1.6 fold and 1.1 fold and 1.7 fold and 1.3 fold
Sirt1 ([2]; dose order): 1.0 fold and 1.1 fold and 0.8 fold and 0.9 fold
Slc27a1 ([2]; dose order): 1.5 fold and 1.6 fold and 0.9 fold and 1.4 fold and 1.1 fold and 1.0 fold and 1.3 fold
Slc27a2 ([2]; dose order): 1.3 fold and 1.8 fold and 2.1 fold and 2.2 fold and 2.3 fold
Slc27a4 ([2]; dose order): 1.3 fold and 1.5 fold and 0.8 fold and 1.0 fold and 1.1 fold and 0.9 fold
Tgs1 ([2]; dose order): 0.8 fold and 0.9 fold and 0.7 fold and 1.1 fold
number of up-regulated genes shared by maternal and fetal livers ([2]; rat, in vivo): 16 genes
